Each compound was assayed on HIV-IIIb (MT-4 cells) (assay: Test A: Antiviral Assays in MT4 Cells). Settings: MT4, 120 h, MT-4 cells infected with HIV-IIIb, 5 days of incubation, CellTiter-Glo readout.
Type: cell-based
Protocol: The antiviral properties of a compound disclosed herein may be determined using Test A described below.
Test A: Antiviral Assays in MT4 Cells
For the antiviral assay utilizing MT-4 cells, 0.4 μL of […] test concentration of 3-fold serially diluted compound in DMSO was added to 40 μL of cell growth medium (RPMI 1640, 10% FBS, 1% penicillin/Streptomycin, 1% L-Glutamine, 1% HEPES) in each well of 384-well assay plates (10 concentrations) in quadruplicate.
1 mL aliquots of 2×10e6 MT-4 cells are pre-infected for 1 and 3 hrs respectively, @ 37° C. with 25 μL (MT4) or of either cell growth medium (mock-infected) or a fresh 1:250 dilution of an HIV-IIIb concentrated ABI stock (0.004 m.o.i. for MT4 cells). Infected and uninfected cells are diluted in cell growth medium and 35 μL of 2000 (for MT4) cells is added to each well of the assay plates.
Assay plates were then incubated in a 37° C. incubator. After 5 days of incubation, […] 2× concentrated CellTiter-Glo™ Reagent (catalog #G7573, Promega Biosciences, Inc., Madison, Wis.) was added to each well of the assay plate. Cell lysis was carried out by incubating at room temperature for 2-3 min and then chemiluminescence was read using the Envision reader (PerkinElmer).
Work on Cc1cc2c(ccc(=O)n2Cc2cc(F)cc(C(F)(F)F)c2)c(-c2ccc3c4c(ccnc24)CCO3)c1[C@H](OC(C)(C)C)C(=O)O (atropisomer, axis not shown) [Example 27, (S)-2-tert-Butoxy-2-((R)-5-(2,3-dihydropyrano[4,3,2-de]quinolin-7-yl)-1-(3-fluoro-5-(trifluoromethyl)benzyl)-7-methyl-2-oxo-1,2-dihydroquinolin-6-yl)acetic acid] yielded an EC50 of 53.5 nM. Cc1cc2nc(C#N)ccc2c(-c2ccc3c4c(ccnc24)CCO3)c1[C@H](OC(C)(C)C)C(=O)O (atropisomer, axis not shown) [Example 50, (S)-2-tert-Butoxy-2-((R)-2-cyano-5-(2,3-dihydropyrano[4,3,2-de]quinolin-7-yl)-7-methylquinolin-6-yl)acetic acid] gave an EC50 of 166 nM. Work on Cc1cc2nc(OCc3cccc(S(C)(=O)=O)c3)ccc2c(-c2ccc3c4c(ccnc24)CCO3)c1[C@H](OC(C)(C)C)C(=O)O (atropisomer, axis not shown) [Example 4, (S)-2-tert-Butoxy-2-((R)-5-(2,3-dihydropyrano[4,3,2-de]quinolin-7-yl)-7-methyl-2-(3-(methylsulfonyl)benzyloxy)quinolin-6-yl)acetic acid] yielded an EC50 of 13.6 nM. Compound Cc1cc2c(ccc(=O)n2-c2cccc(NS(C)(=O)=O)c2)c(-c2ccc3c4c(ccnc24)CCO3)c1[C@H](OC(C)(C)C)C(=O)O (atropisomer, axis not shown) [Example 36, (S)-2-tert-Butoxy-2-((R)-5-(2,3-dihydropyrano[4,3,2-de]quinolin-7-yl)-7-methyl-1-(3-(methylsulfonamido)phenyl)-2-oxo-1,2-dihydroquinolin-6-yl)acetic acid] has an EC50 of 37400 nM. Work on Cc1cc2c(ccc(=O)n2Cc2ccc(OC(F)(F)F)cc2)c(-c2ccc3c4c(ccnc24)CCO3)c1[C@H](OC(C)(C)C)C(=O)O (atropisomer, axis not shown) [Example 16, (S)-2-tert-Butoxy-2-((R)-5-(2,3-dihydropyrano[4,3,2-de]quinolin-7-yl)-7-methyl-2-oxo-1-(4-(trifluoromethoxy)benzyl)-1,2-dihydroquinolin-6-yl)acetic acid] yielded an EC50 of 1610 nM. Cc1cc2c(ccc3cnnn32)c(-c2ccc3c4c(ccnc24)CCO3)c1[C@H](OC(C)(C)C)C(=O)O (atropisomer, axis not shown) [Example 55, (S)-2-tert-butoxy-2-((R)-6-(2,3-dihydropyrano[4,3,2-de]quinolin-7-yl)-8-methyl-[1,2,3]triazolo[1,5-a]quinolin-7-yl)acetic acid] gave an EC50 of 78.4 nM. With Cc1cc2c(ccc(=O)n2Cc2cccc(C(F)(F)F)c2)c(-c2ccc(Cl)cc2)c1[C@H](OC(C)(C)C)C(=O)O [Example 7, (S)-2-tert-Butoxy-2-(5-(4-chlorophenyl)-7-methyl-2-oxo-1-(3-(trifluoromethyl)benzyl)-1,2-dihydroquinolin-6-yl)acetic acid] the EC50 was 187 nM. In the case of Cc1cc2c(ccc(=O)n2-c2cccc(S(C)(=O)=O)c2)c(-c2ccc3c4c(ccnc24)CCO3)c1[C@H](OC(C)(C)C)C(=O)O (atropisomer, axis not shown) [Example 37, (S)-2-tert-Butoxy-2-((R)-5-(2,3-dihydropyrano[4,3,2-de]quinolin-7-yl)-7-methyl-1-(3-(methylsulfonyl)phenyl)-2-oxo-1,2-dihydroquinolin-6-yl)acetic acid], the EC50 is reported as 8430 nM. With Cc1cc2c(ccc(=O)n2Cc2cncnc2)c(-c2ccc3c4c(ccnc24)CCO3)c1[C@H](OC(C)(C)C)C(=O)O (atropisomer, axis not shown) [Example 25, (S)-2-tert-butoxy-2-((R)-5-(2,3-dihydropyrano[4,3,2-de]quinolin-7-yl)-7-methyl-2-oxo-1-(pyrimidin-5-ylmethyl)-1,2-dihydroquinolin-6-yl)acetic acid] the EC50 was 472 nM. For Cc1cc2c(ccc(=O)n2Cc2ccc3c(cnn3C)c2)c(-c2ccc3c4c(ccnc24)CCO3)c1[C@H](OC(C)(C)C)C(=O)O (atropisomer, axis not shown) [Example 29, (S)-2-tert-Butoxy-2-((R)-5-(2,3-dihydropyrano[4,3,2-de]quinolin-7-yl)-7-methyl-1-((1-methyl-1H-indazol-5-yl)methyl)-2-oxo-1,2-dihydroquinolin-6-yl)acetic acid], the EC50 was 85.5 nM. For Cc1cc2c(ccc(=O)n2Cc2cncc(C(F)(F)F)c2)c(-c2ccc3c4c(ccnc24)CCO3)c1[C@H](OC(C)(C)C)C(=O)O (atropisomer, axis not shown) [Example 31, (S)-2-tert-Butoxy-2-((R)-5-(2,3-dihydropyrano[4,3,2-de]quinolin-7-yl)-7-methyl-2-oxo-1-((5-(trifluoromethyl)pyridin-3-yl)methyl)-1,2-dihydroquinolin-6-yl)acetic acid], the EC50 was 68.2 nM. Cc1cc2c(ccc(=O)n2Cc2cc(C(F)(F)F)cc(C(F)(F)F)c2)c(-c2ccc3c4c(ccnc24)CCO3)c1[C@H](OC(C)(C)C)C(=O)O (atropisomer, axis not shown) [Example 20, (S)-2-((R)-1-(3,5-Bis(trifluoromethyl)benzyl)-5-(2,3-dihydropyrano[4,3,2-de]quinolin-7-yl)-7-methyl-2-oxo-1,2-dihydroquinolin-6-yl)-2-tert-butoxyacetic acid] gave an EC50 of 90 nM. Compound Cc1cc2c(ccc(=O)n2Cc2cccc(C(F)F)c2)c(-c2ccc3c4c(ccnc24)CCO3)c1[C@H](OC(C)(C)C)C(=O)O (atropisomer, axis not shown) [Example 30, (S)-2-tert-Butoxy-2-((R)-1-(3-(difluoromethyl)benzyl)-5-(2,3-dihydropyrano[4,3,2-de]quinolin-7-yl)-7-methyl-2-oxo-1,2-dihydroquinolin-6-yl)acetic acid] has an EC50 of 34.7 nM. For Cc1cc2c(ccc(=O)n2Cc2ccc(Oc3ccccc3)cc2)c(-c2ccc3c4c(ccnc24)CCO3)c1[C@H](OC(C)(C)C)C(=O)O (atropisomer, axis not shown) [Example 32, (S)-2-tert-Butoxy-2-((R)-5-(2,3-dihydropyrano[4,3,2-de]quinolin-7-yl)-7-methyl-2-oxo-1-(4-phenoxybenzyl)-1,2-dihydroquinolin-6-yl)acetic acid], the EC50 was 3060 nM. For Cc1cc2nc(NC(=O)c3ccccc3)ccc2c(-c2ccc3c4c(ccnc24)CCO3)c1[C@H](OC(C)(C)C)C(=O)O (atropisomer, axis not shown) [Example 49, (S)-2-((R)-2-Benzamido-5-(2,3-dihydropyrano[4,3,2-de]quinolin-7-yl)-7-methylquinolin-6-yl)-2-tert-butoxyacetic acid], the EC50 was 134 nM. Cc1ccc2c(-c3ccc4c5c(ccnc35)CCO4)c([C@H](OC(C)(C)CCc3ccccc3)C(=O)O)c(C)cc2n1 (atropisomer, axis not shown) [Example 38, (2S)-2-((R)-5-(2,3-Dihydropyrano[4,3,2-de]quinolin-7-yl)-2,7-dimethylquinolin-6-yl)-2-(2-methyl-4-phenylbutan-2-yloxy)acetic acid] gave an EC50 of 38.1 nM. Cc1cc2c(ccc(=O)n2Cc2cccc3c2cnn3C)c(-c2ccc3c4c(ccnc24)CCO3)c1[C@H](OC(C)(C)C)C(=O)O (atropisomer, axis not shown) [Example 28, (S)-2-tert-Butoxy-2-((R)-5-(2,3-dihydropyrano[4,3,2-de]quinolin-7-yl)-7-methyl-1-((1-methyl-1H-indazol-4-yl)methyl)-2-oxo-1,2-dihydroquinolin-6-yl)acetic acid] was tested, and the EC50 was 45.8 nM. For Cc1cc2c(ccc(=O)n2Cc2ccncc2)c(-c2ccc3c4c(ccnc24)CCO3)c1[C@H](OC(C)(C)C)C(=O)O (atropisomer, axis not shown) [Example 21, (S)-2-tert-Butoxy-2-((R)-5-(2,3-dihydropyrano[4,3,2-de]quinolin-7-yl)-7-methyl-2-oxo-1-(pyridin-4-ylmethyl)-1,2-dihydroquinolin-6-yl)acetic acid], the EC50 was 755 nM. Work on Cc1cc2c(ccc(=O)n2CCCc2ccccc2)c(-c2ccc3c4c(ccnc24)CCO3)c1[C@H](OC(C)(C)C)C(=O)O (atropisomer, axis not shown) [Example 24, (S)-2-tert-Butoxy-2-((R)-5-(2,3-dihydropyrano[4,3,2-de]quinolin-7-yl)-7-methyl-2-oxo-1-(3-phenylpropyl)-1,2-dihydroquinolin-6-yl)acetic acid] yielded an EC50 of 687 nM. COc1cc(Cn2c(=O)ccc3c(-c4ccc5c6c(ccnc46)CCO5)c([C@H](OC(C)(C)C)C(=O)O)c(C)cc32)cc(OC)c1 (atropisomer, axis not shown) [Example 33, (S)-2-tert-Butoxy-2-((R)-5-(2,3-dihydropyrano[4,3,2-de]quinolin-7-yl)-1-(3,5-dimethoxybenzyl)-7-methyl-2-oxo-1,2-dihydroquinolin-6-yl)acetic acid] gave an EC50 of 133 nM.

Same assay, conditions: MT-4 cells infected with HIV-IIIb, 5 days of incubation, CellTiter-Glo readout
CCC(C)(CC)O[C@H](C(=O)O)c1c(C)cc2nc(C)ccc2c1-c1ccc2c3c(ccnc13)CCO2 (atropisomer, axis not shown) [Example 42, (S)-2-((S)-5-(2,3-Dihydropyrano[4,3,2-de]quinolin-7-yl)-2,7-dimethylquinolin-6-yl)-2-(3-methylpentan-3-yloxy)acetic acid] showed an EC50 of 5630 nM.

Source: patent publication US9376392B2, “2-(tert-butoxy)-2-(7-methylquinolin-6-yl) acetic acid derivatives for treating AIDS” (Gilead Sciences, Inc., priority 2012, dated 2016)
